Series [1] has as its system Escherichia coli CIP 54.8. Kind of series: Minimal inhibiting concentration (MIC), Gram- strain (Table IV). The format is cell-based. The conditions noted are these: CIP54. From the text:
(§1) A certain number of compounds according to the invention are given non-restrictively by way of illustration in tables I, II and III hereinafter. The minimal inhibiting concentrations (MIC) of these compounds vis-a-vis a Gram+bacteria (Staphylococcus aureus London) a Gram-bacteria (Escherichia coli) and a fungus (Candida albicans) are given hereinafter in table IV. In table V are tabulated the MIC values of two compounds according to the invention which are particularly interesting [compound B 673 (example 26) and compound B 674 (example 29)] vis-a-vis several strains.
(§2) The strains used are those of the catalogues of the "Institut Pasteur" of Paris (abbreviation: CIP), the "Centre International de Distribution de Souches et d'Information sur les Types Microbiens de Lausanne" (abbreviation: La) and the "American Type Culture Collection" (abbreviation: ATCC).
G^- = Gram^- strain: Escherichia coli CIP 54.8

Series [2] deals with Staphylococcus aureus London CIP A.238. The experiment in a line: Minimal inhibiting concentration (MIC), Gram+ strain (Table IV). The format is cell-based. The note with it: for MIC: Staphylococcus aureus.
From the text: as §1, §2
G^+ = Gram^+ strain: Staphylococcus aureus London CIP A.238

The nature of series [3]: Toxicity, LD-50 mice (Table VI). The note with it: for LD50: mouse, in vivo.
The subject of series [4] is Candida albicans CIP 1180. Kind of series: Minimal inhibiting concentration (MIC), fungus strain (Table IV). The conditions noted are these: for MIC: Candida albicans, CIP1180, Candida albicans CIP 1180; for MIC C: Candida albicans CIP 1180. Format: cell-based.
From the text: as §1, §2
C = fungus strain: Candida albicans CIP 1180

For series [5], the system named is Streptococcus pyogenes CIP A.241. The experiment in a line: MIC vis-a-vis several strains (Table V). The format is cell-based. The conditions noted are these: CIPA.241.
From the text: as §1, §2

In series [6] the test system is Streptococcus pyogenes CIP 56.42. Kind of series: MIC vis-a-vis several strains (Table V). Format: cell-based. The conditions noted are these: CIP56.
From the text: as §1, §2

Series [7] deals with Streptococcus faecalis CIP 53.152. The experiment in a line: MIC vis-a-vis several strains (Table V). Format: cell-based. The note with it: Enterococcus faecalis, CIP53.
From the text: as §1, §2

The test system of series [8] is Haemophilus influenzae CIP 5293. The experiment in a line: MIC vis-a-vis several strains (Table V). The format is cell-based. The note with it: CIP5293.
From the text: as §1, §2

The subject of series [9] is Corynebacterium diphteriae CIP A.102. Kind of series: MIC vis-a-vis several strains (Table V). Format: cell-based. The note with it: CIPA.102.
From the text: as §1, §2

Series [10] relates to Streptococcus pyogenes la 147. Kind of series: MIC vis-a-vis several strains (Table V). Format: cell-based. The conditions noted are these: LA147.
From the text: as §1, §2

Series [11] deals with Streptococcus pyogenes CIP 5641. The experiment in a line: MIC vis-a-vis several strains (Table V). The format is cell-based. The note with it: CIP5641.
From the text: as §1, §2

Series [12] has as its system Branhamella catarrhalis la 987. Kind of series: MIC vis-a-vis several strains (Table V). Format: cell-based. The note with it: Moraxella catarrhalis, LA987.
From the text: as §1, §2

The test system of series [13] is Klebsiella pneumoniae la 433. Kind of series: MIC vis-a-vis several strains (Table V). The format is cell-based. The conditions noted are these: LA433.
From the text: as §1, §2

The subject of series [14] is Neisseria gonorrhoeae CIP A.52. Kind of series: MIC vis-a-vis several strains (Table V). The format is cell-based. The note with it: CIPA.52.
From the text: as §1, §2

Series [15] has as its system Listeria monocytogenes CIP 54153. Kind of series: MIC vis-a-vis several strains (Table V). Format: cell-based. The conditions noted are these: CIP54153.
From the text: as §1, §2

Series [16] deals with Staphylococcus aureus ATCC 6538 P. Kind of series: MIC vis-a-vis several strains (Table V). Format: cell-based. The conditions noted are these: ATCC6538.
From the text: as §1, §2

Series [17] relates to Diplococcus pneumoniae la 209. Kind of series: MIC vis-a-vis several strains (Table V). The format is cell-based. The note with it: Streptococcus pneumoniae, LA209.
From the text: as §1, §2

Series [18] deals with Neisseria meningitidis CIP 7310. Kind of series: MIC vis-a-vis several strains (Table V). Format: cell-based. The conditions noted are these: CIP7310.
From the text: as §1, §2

Series [19] has as its system Bacillus subtilis ATCC 6633. The experiment in a line: MIC vis-a-vis several strains (Table V). The format is cell-based. The note with it: ATCC6633.
From the text: as §1, §2

The nature of series [20]: Spasmolytic properties.

Values after ≈ are worked out from the molar mass of the structure shown. “Also recorded” adds a separate entry of the source. Like-named read-outs stand apart in the source and are kept apart here.

As usually defined, the LD50 is the dose expected to kill half of the subjects tested.

`CC[N+](CC)(CCOc1ccc(C)cc1Cc1ccc(Cl)cc1Cl)Cc1ccccc1` [Example 26]: the MIC came out at 32 µg/mL in series [1]; 0.25 µg/mL in series [2]; 4 µg/mL in series [4]; 0.78 µg/mL in series [5]; 0.78 µg/mL in [6]; 3.12 µg/mL in series [7]. Besides, the MIC in [8] is 0.78 µg/mL; in series [9], 25 µg/mL; in series [10] it was 0.78 µg/mL; in series [11], 0.78 µg/mL; in series [12] it was 0.78 µg/mL; in series [13], 25 µg/mL. The MIC turned out to be 0.78 µg/mL in [14]; 1.56 µg/mL in series [15]; 0.78 µg/mL in [16]; 1.56 µg/mL in series [17]; 0.78 µg/mL in series [18]; 1.56 µg/mL in series [19]. This compound returned an LD50 in series [3] of more than 1000 mg/kg.
On to `CCN(CC)CCOc1ccc(C(C)(C)CC(C)(C)C)cc1Cc1ccc(Cl)cc1Cl` [Example 15], for which the “MIC G^+” value in [2] (listed as Ex 15) is 16 μ g/ml. Moreover, the spasmolytic properties entry in [20] is on record as “beneficial spasmolytic properties”.
Regarding `CCCCCCc1ccc(OCCN(CC)CC)c(Cc2ccc(Cl)cc2Cl)c1` [Example 8], the MIC in series [1], in series [2] and in [4] was 64 µg/mL (≈ 147 µM) each time.
For the compound `CC(C)c1ccc(OCCN(C)C)c(Cc2ccc(Cl)c(Cl)c2)c1` [Example 10], the MIC came out at 64 µg/mL (≈ 175 µM) in [1] and 16 µg/mL (≈ 43.7 µM) in series [2].
As to `CCc1ccc(OCC[N+](CC)(CC)Cc2ccccc2)c(Cc2ccc(Cl)cc2Cl)c1` [Example 27], the MIC in series [1] came out at 8 µg/mL; in series [2] it was 0.125 µg/mL; in series [4] it was 0.5 µg/mL. For the same compound, in series [3], the LD50 was 850 mg/kg.
In the same order, the values of `CCCC[N+](CC)(CC)CCOc1ccc(C(C)(C)CC)cc1Cc1ccc(Cl)cc1Cl.[Br-]` [Example 23, N,N-diethyl-N-{2-[2-(2,4-dichlorobenzyl)-4-(1,1-dimethylpropyl)-phenoxy]-ethyl}-N-butylammonium bromide] are 4 µg/mL, 0.06 µg/mL, 0.25 µg/mL and more than 1000 mg/kg.
Regarding `CCCCCCc1ccc(OCC[N+](CC)(CC)Cc2ccccc2)c(Cc2ccc(Cl)cc2Cl)c1` [Example 32], the MIC in series [1] came out at 16 µg/mL; in series [2] it was 0.125 µg/mL; in series [4], 0.5 µg/mL.
`CCN(CC)CCOc1ccc(C(C)(C)CC)cc1Cc1ccc(Cl)cc1Cl` [Example 6, β-[2-(2,4-dichlorobenzyl)-4-(1,1-dimethylpropyl)-phenoxy]-N,N-diethylethylamine]: the MIC in [2] came to 8 µg/mL (≈ 18.9 µM); in [4] it was 16 µg/mL (≈ 37.9 µM).
Turning to `CCN(CC)CCOc1ccc(C(C)(C)CC)cc1Cc1ccc(Cl)cc1Cl.Cl` [Example 14, β-[2-(2,4-dichlorobenzyl)-4-(1,1-dimethylpropyl)-phenoxy]-N,N-diethylethylamine hydrochloride], the MIC in [1] worked out at 64 µg/mL; in [2] it was 8 µg/mL; in series [4], 4 µg/mL. Further, the spasmolytic properties entry in [20] is recorded as “beneficial spasmolytic properties”.
Consider `CCCC[N+](CC)(CC)CCOc1ccc(C(C)(C)CC(C)(C)C)cc1Cc1ccc(Cl)cc1Cl` [Example 24], for which the MIC in series [1] was 16 µg/mL; in series [2], 0.015 µg/mL; in series [4], 1 µg/mL.
For `CCN(CC)CCOc1ccc(C(C)C)cc1Cc1ccc(Cl)cc1Cl` [Example 12], the “MIC G^+” value in series [2] (listed as Ex 12) came to 4 μ g/ml. For the same compound, in series [4] (listed as Ex 12), the “MIC C” value is 4 μ g/ml. Besides, the spasmolytic properties entry in series [20] (listed as B 805) is given as “beneficial spasmolytic properties; also recorded: The most interesting compound, as spasmolytic agent”.
On to `CCC(C)c1ccc(OCCN(CC)CC)c(Cc2ccc(Cl)cc2Cl)c1` (centres unmarked) [Example 13], for which the “MIC G^+” value in series [2] (listed as Ex 13) was 8 μ g/ml. Also, the “MIC C” value in series [4] (listed as Ex 13) worked out at 0.5 μ g/ml. Further, the spasmolytic properties result in series [20] is recorded as “beneficial spasmolytic properties”.
Consider `CCN(CC)CCOc1ccc(C)cc1Cc1ccc(Cl)cc1Cl` [Example 1], for which the MIC amounted to 50 µg/mL (≈ 136 µM) in series [1] and 12.5 µg/mL (≈ 34.1 µM) in series [2].
As for `CCC(C)(C)c1ccc(OCC[N+](C)(CC)CC)c(Cc2ccc(Cl)cc2Cl)c1.[I-]` [Example 21, N,N-diethyl-N-{2-[2-(2,4-dichlorobenzyl)-4-(1,1-dimethylpropyl)-phenoxy]-ethyl}-N-methylammonium iodide], the MIC stood at 8 µg/mL in [1], 0.125 µg/mL in [2] and 0.5 µg/mL in [4].
On to `CCc1ccc(OCCN(CC)CC)c(Cc2ccc(Cl)cc2Cl)c1` [Example 2], for which the “MIC G^+” value in [2] (listed as Ex 2) came to 64 μ g/ml. In addition, the “MIC C” value in [4] (listed as Ex 2) is on record as 64 μ g/ml.
Turning to `CCCCc1ccc(OCC[N+](CC)(CC)Cc2ccccc2)c(Cc2ccc(Cl)cc2Cl)c1` [Example 31], the MIC in series [1] was 4 µg/mL; in [2], 0.031 µg/mL; in series [4] it was 0.125 µg/mL. The compound also displayed an LD50 in series [3] of more than 1000 mg/kg.
As to `CCN(CC)CCOc1ccc(C(C)(C)CC(C)(C)C)cc1Cc1ccc(Cl)cc1Cl` [Example 9], the MIC in series [2] came to 25 µg/mL (≈ 53.8 µM).
Take `CCN(CC)CCOc1ccc(C(C)(C)C)cc1Cc1ccc(Cl)cc1Cl` [Example 5, β-[2-(2,4-dichlorobenzyl)-4-tertiobutylphenoxy]-N,N-diethyl-ethylamin]: the MIC in [2] is 50 µg/mL (≈ 122 µM).
Consider “benzalkonium chloride [Example A-1, reference compound]”, for which the LD-50 mice in [3] (mice, route not given) came out at 550 mg/kg.
As to `CCC(C)(C)c1ccc(OCC[N+](CC)(CC)Cc2ccccc2)c(Cc2ccc(Cl)cc2Cl)c1` [Example 30], the MIC in series [1] amounted to 4 µg/mL; in [2], 0.004 µg/mL; in series [4], 0.25 µg/mL. In addition, in series [3], the LD50 is more than 1000 mg/kg.
For `CCc1ccc(OCCN(CC)CC)c(Cc2ccc(Cl)cc2Cl)c1` [Example 11], in [2] (listed as Ex 11), the “MIC G^+” value amounted to 8 μ g/ml. In series [4] (listed as Ex 11), the “MIC C” value worked out at 8 μ g/ml. Moreover, the spasmolytic properties result in [20] was “beneficial spasmolytic properties”.
For `CC[N+](CC)(CCOc1ccc(C(C)C)cc1Cc1ccc(Cl)cc1Cl)Cc1ccccc1` [Example 28], the MIC worked out at 8 µg/mL in [1], 0.015 µg/mL in [2] and 0.25 µg/mL in series [4].
On to `CCCCCCCCCCCCCCCC[N+](C)(C)C` [Example A-2, cetrymonium chloride, reference compound], for which the LD50 in series [3] amounted to 750 mg/kg.
Turning to `CCC(C)c1ccc(OCCN(CC)CC)c(Cc2ccc(Cl)cc2Cl)c1` (centres unmarked) [Example 4], the “MIC G^+” value in series [2] (listed as Ex 4) was found to be 32 μ g/ml. In addition, the “MIC C” value in series [4] (listed as Ex 4) was found to be 16 μ g/ml.
In the case of `CC[N+](CC)(CCOc1ccc(C(C)(C)CC(C)(C)C)cc1Cc1ccc(Cl)cc1Cl)Cc1ccccc1` [Example 33], the MIC was 0.03 µg/mL in series [2] and 1 µg/mL in [4].
For the compound `CC[N+](C)(CC)CCOc1ccc(C(C)(C)CC(C)(C)C)cc1Cc1ccc(Cl)cc1Cl` [Example 22], the values for the MIC in series [1], in [2] and in [4] were 64 µg/mL, 0.125 µg/mL and 0.25 µg/mL, respectively.
On to `CCN(CC)CCOc1ccc(C(C)C)cc1Cc1ccc(Cl)cc1Cl` [Example 3], for which the “MIC G^+” value in series [2] (listed as Ex 3) is 16 μ g/ml. The MIC in series [4] is 8 µg/mL (≈ 20.3 µM).
On to `CCCCc1ccc(OCCN(CC)CC)c(Cc2ccc(Cl)cc2Cl)c1` [Example 7], for which the MIC in series [1], in [2] and in series [4] was 64 µg/mL (≈ 157 µM) each time.

(Values after US4659741A, “β-[2-(halogenobenzyl)-phenoxy]-ethylamine derivatives” (Institut de Recherches Chimiques et Biologiques Appliquees …, priority 1983, dated 1987).)
